{
  "source": "patent US8822754B2",
  "about": "“Ecdysone receptor-based inducible gene expression system” (Intrexon Corporation, priority 2000, dated 2014)",
  "key": {"GAL4RXR + VP16CfEcR": {"test_system": "GAL4RXR + VP16CfEcR", "assay": "Transactivation of reporter genes through switch 1.3 in 3T3 cells", "conditions": "GAL4MmRXRDEF/VP16CfEcRCDEF (switch 1.3), 1.0 μM ligand", "from_the_text": "(§1) In various cellular backgrounds, including mammalian cells, insect ecdysone receptor (EcR) heterodimerizes with retinoid X receptor (RXR) and, upon binding of ligand, transactivates genes under the control of ecdysone response elements. Applicants constructed several EcR-based gene expression cassettes based on the spruce budworm Choristoneura fumiferana EcR (“CfEcR”; full length polynucleotide and amino acid sequences are set forth in SEQ ID NO: 49 and SEQ ID NO: 50, respectively), C. fumiferana ultraspiracle (“CfUSP”; full length polynucleotide and amino acid sequences are set forth in SEQ ID NO: 51 and SEQ ID NO: 52, respectively), and mouse Mus musculus RXRα (MmRXRα; full length polynucleotide and amino acid sequences are set forth in SEQ ID NO: 53 and SEQ ID NO: 54, respectively). The prepared receptor constructs comprise a ligand binding domain of EcR and of RXR or of USP; a DNA binding domain of GAL4 or of EcR; and an activation domain of VP16. The reporter constructs include a reporter gene, luciferase or LacZ, operably linked to a synthetic promoter construct that comprises either GAL4 or EcR/USP binding sites (response elements). Various combinations of these receptor and reporter constructs were cotransfected into CHO, NIH3T3, CV1 and 293 cells. […] Reporter gene expression activities were assayed at 24 hr or 48 hr after ligand addition.\nMmRXRDEF (SEQ ID NO: 22) was fused to a GAL4DNABD (SEQ ID NO: 41) and CfEcRCDEF (SEQ ID NO: 1) was fused to a VP16AD (SEQ ED NO: 45).\n(§2) The same procedures described for CHO cells were followed for 3T3 cells as well with two modifications. The cells were plated when they reached 50% confluency. 125,000 or 50,000 or 25,000 cells were plated per well of 6- or 12- or 24-well plates respectively. The GAl4EcR/VP16RXR and reporter vector DNAs were transfected into NIH3T3 cells, the transfected cells were grown in medium containing PonA, MurA, N-(2-ethyl-3-methoxybenzoyl)-N′-(3,5-dimethylbenzoyl)-N′-t-butylhydrazine, or N-(3,4-(1,2-ethylenedioxy)-2-methylbenzoyl)-N′-(3,5-dimethylbenzoyl)-N′-tert-butylhydrazine for 48 hr. The ligand treatments were performed as described in the CHO cell section above.\n(§3) Cells were harvested 24-48 hr after adding ligands. 125, 250, or 500 μl of passive lysis buffer (part of Dual-luciferase™ reporter assay system from Promega Corporation) were added to each well of 24- or 12- or […] respectively. The plates were placed on a rotary shaker for 15 min. Twenty μl of lysate was assayed. Luciferase activity was measured using Dual-luciferase™ reporter assay system from Promega Corporation following the manufacturer's instructions. β-Galactosidase was measured using Galacto-Star™ assay kit from TROPIX following the manufacturer's instructions. All luciferase and β-galactosidase activities were normalized using Renilla luciferase as a standard. Fold activities were calculated by dividing normalized relative light units (“RLU”) in ligand treated cells with normalized RLU in DMSO treated cells (untreated control)."}, "GAL4EcR + VP16RXR": {"test_system": "GAL4EcR + VP16RXR", "assay": "Transactivation of reporter genes through switch 1.1 in 3T3 cells", "conditions": "GAL4CfEcRDEF/VP16MmRXRDEF (switch 1.1), 1.0 μM ligand, 48 hr", "from_the_text": "as §1, §2, §3"}, "CfEcR": {"test_system": "CfEcR", "assay": "Comparison of switches in the mammalian cell lines tested (Tables 1-4)", "type": "cell-based, Choristoneura fumiferana", "conditions": "see Tables 1-4", "protocol": "Several commercially available lipofactors as well as electroporation methods were evaluated and the best conditions for transfection of each cell line were developed. CHO, NIH3T3, 293 and CV1 cells were grown to 60% confluency. DNAs corresponding, to the various switch constructs outlined in Examples 1.1 through 1.10 were transfected into CHO cells, NIH3T3 cells, 293 cells, or CV1 cells as follows.\nCells were harvested 24-48 hr after adding ligands. […] Twenty μl of lysate was assayed."}, "CfEcR/RXR-based switch": {"test_system": "CfEcR/RXR-based switch", "assay": "Luciferase reporter assay of truncated CfEcR and MmRXR receptor pairs in NIH3T3 cells (Example 2)", "type": "cell-based, Choristoneura fumiferana", "conditions": "NIH3T3 cells, 0, 1, 5 or 25 uM ligand, 48 hr; FIGS. 11-14", "protocol": "Briefly, polynucleotides encoding EcR or RXR receptors were truncated at the junctions of A/B, C, D, E and F domains and fused to either a GAL4 DNA binding domain encoding polynucleotide (SEQ ID NO: 41) for CfEcR, or a VP16 activation domain encoding polynucleotide (SEQ ID NO: 45) for MmRXR as described in Example 1. The resulting receptor truncation/fusion polypeptides were assayed in NIH3T3 cells. Plasmid pFRLUC (Stratagene) encoding a luciferase polypeptide was used as a reporter gene construct and pTKRL (Promega) encoding a Renilla luciferase polypeptide under the control of the constitutive TK promoter was used to normalize the transfections as described above. The analysis was performed in triplicates and mean luciferase counts were determined as described above.\nGene expression cassettes comprising polynucleotides encoding either full length or truncated CfEcR polypeptides fused to a GALA. […] The cells were harvested, lysed and luciferase reporter activity was measured in the cell lysates. […]"}},
  "data": [
    {"smiles": "CC(C)CC[C@@H](O)[C@](C)(O)[C@H]1CC[C@@]2(O)C3=CC(=O)[C@]4(O)C[C@@H](O)[C@@H](O)C[C@]4(C)[C@H]3[C@H](O)C[C@]12C", "note": "[Muristerone A, reference compound]", "values": [
      {"measurement": "Mean Fold Induction at 1.0 μM Concentration", "setting": "GAL4RXR + VP16CfEcR", "result": 1.0, "unit": "fold"},
      {"measurement": "Mean Fold Induction at 1.0 μM Concentration", "setting": "GAL4EcR + VP16RXR", "result": 1.0, "unit": "fold"}
    ]},
    {"smiles": "Cc1cc(C)cc(C(=O)N(NC(=O)c2ccc3c(c2C)OCCO3)C(C)(C)C)c1", "note": "[N-(3,4-(1,2-ethylenedioxy)-2-methylbenzoyl)-N′-(3,5-dimethylbenzoyl)-N′-tert-butylhydrazine]", "values": [
      {"measurement": "potency as activators of CfEcR as compared to DmEcR", "setting": "CfEcR", "result": "more potent activators of CfEcR"},
      {"measurement": "Mean Fold Induction at 1.0 μM Concentration", "setting": "GAL4RXR + VP16CfEcR", "result": 54, "unit": "fold"},
      {"measurement": "Mean Fold Induction at 1.0 μM Concentration", "setting": "GAL4EcR + VP16RXR", "result": 601, "unit": "fold"}
    ]},
    {"smiles": "CC(C)CC[C@@H](O)[C@](C)(O)[C@H]1CC[C@@]2(O)C3=CC(=O)[C@@H]4C[C@@H](O)[C@@H](O)C[C@]4(C)[C@H]3CC[C@]12C", "note": "[Ponasterone A, reference compound]", "values": [
      {"measurement": "sensitivity of the EcR/RXR switch to the ligand", "setting": "CfEcR/RXR-based switch", "result": "insensitive"},
      {"measurement": "Mean Fold Induction at 1.0 μM Concentration", "setting": "GAL4RXR + VP16CfEcR", "result": 1.0, "unit": "fold"},
      {"measurement": "Mean Fold Induction at 1.0 μM Concentration", "setting": "GAL4EcR + VP16RXR", "result": 1.0, "unit": "fold"}
    ]}
  ]
}
